# Test results from US20260317309A1, “N-HETEROCYLIC GPCR RECEPTOR AGONISTS, PHARMACEUTICAL COMPOSITIONS COMPRISING THE SAME, AND METHODS FOR THEIR USE” (Carmot Therapeutics, Inc., priority 2022, published 2026).
# Target: T1, human GLP-1 receptor (Homo sapiens, UniProt P43220)
# T1 construct: expressed in transfected cells
# Assay: GLP-1R cAMP assay (cAMP accumulation in CHO cells stably overexpressing the human GLP-1 receptor, HitHunter kit)
# Assay type: cell-based
# Settings: CHO cells stably overexpressing human GLP-1R, 30 min, 20-point dose response in triplicate
# Protocol: CAMP accumulation was measured in Chinese hamster ovary (CHO) cells (10,000 cells/well) stably overexpressing the human GLP-1 receptor using the HitHunter CAMP Assay for Small Molecules Kit (Eurofins). Briefly, cells were grown in Ham's F12 Nutrient Mix with 10% FBS, and lifted with Cell Dissociation Buffer, Enzyme free, PBS based (ThermoFisher). Cells were pelleted, and resuspended in Hank's buffered saline solution with 10 mM HEPES, and 625 μM 3-isobutyl-1-methylxanthine. The anti-cAMP antibody reagent was then added to cells at a 1:2 ratio and 5 μL of mixture was seeded in 384-well small volume white assay plates, at 10,000 cells/well. Cells were then treated with 50 nL compound using an ECHO 550 acoustic dispenser (Labcyte) in a 20-point dose response format in triplicate for 30 min. Cells were then lysed, and detection reagents added according to the manufacturer's protocol. After overnight incubation, luminescence was measured using a Perkin Elmer Envision plate reader. Dose response curves were analyzed using GraphPad Prism 9.0.
# In the Table, EC50 values are designated as follows: • A: 0 nM<EC50<0.1 nM; • B: 0.1 nM≤EC50<1.0 nM; • C: 1.0 nM≤EC50<10.0 nM; • D: 10.0 nM≤EC50<100 nM; • E: 100 nM≤EC50<500 nM; and • F: ≥500 nM
# T1 sequence (P43220 24-463): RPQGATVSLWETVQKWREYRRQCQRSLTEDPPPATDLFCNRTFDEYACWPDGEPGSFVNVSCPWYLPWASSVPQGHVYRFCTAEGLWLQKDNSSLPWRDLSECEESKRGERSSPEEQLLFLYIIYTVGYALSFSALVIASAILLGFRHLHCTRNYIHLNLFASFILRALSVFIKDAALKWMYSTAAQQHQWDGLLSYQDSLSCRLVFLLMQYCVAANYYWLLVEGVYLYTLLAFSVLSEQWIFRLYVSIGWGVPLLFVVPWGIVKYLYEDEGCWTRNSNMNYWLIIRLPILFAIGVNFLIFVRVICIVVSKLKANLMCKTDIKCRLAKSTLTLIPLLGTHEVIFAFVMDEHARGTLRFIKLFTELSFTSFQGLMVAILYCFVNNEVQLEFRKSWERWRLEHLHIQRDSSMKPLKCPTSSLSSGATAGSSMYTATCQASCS
row,EC50,Compound
1,0.1 to 1 nM,"C[C@H]1C[C@@H](Oc2ccnc(COc3ccc(F)cc3F)n2)CCN1Cc1nc2cc(F)c(C(=O)O)cc2n1C[C@@H]1CCO1 [Compound 572, 2-{[(2S,4S)-4-({2-[(2,4-di-fluorophenoxy)methyl]pyrimidin-4-yl}oxy)-2-methylpiperidin-1-yl]methyl}-5-fluoro-1-{[(2S)-oxetan-2-yl]methyl}-1H-1,3-benzodiazole-6-carboxylic acid]"
2,0.1 to 1 nM,"N#Cc1ccc(OCc2nccc(O[C@H]3CCN(Cc4nc5ccc(C(=O)O)cc5n4C[C@@H]4CCO4)[C@@H](C(F)(F)F)C3)n2)c(F)c1 [Compound 599, 2-{[(2R,4S)-4-({2-[(4-cyano-2-fluorophenoxy)methyl]pyrimidin-4-yl}oxy)-2-(trifluoromethyl)piperidin-1-yl]methyl}-1-{[(2S)-oxetan-2-yl]methyl}-1H-1,3-benzodiazole-6-carboxylic acid]"
3,0.1 to 1 nM,"C[C@H]1C[C@@H](Oc2ccnc(COc3ncc(F)cc3F)n2)CCN1Cc1nc2c(F)cc(C(=O)O)cc2n1C[C@@H]1CCCO1 [Compound 622, 2-(((2S,4S)-4-((2-(((3,5-Difluoropyridin-2-yl)oxy)methyl)pyrimidin-4-yl)oxy)-2-methylpiperidin-1-yl)methyl)-4-fluoro-1-(((S)-tetrahydrofuran-2-yl)methyl)-1H-benzo[d]imidazole-6-carboxylic acid]"
4,0.1 to 1 nM,"C[C@@H](Cn1c(CN2CC[C@H](Oc3ccnc(COc4ccc(F)cc4F)n3)C[C@@H]2C)nc2ccc(C(=O)O)cc21)OC(F)F [Compound 591, 1-[(2S)-2-(Difluoromethoxy)propyl]-2-{[(2S,4S)-4-({2-[(2,4-difluorophenoxy)methyl]pyrimidin-4-yl}oxy)-2-methylpiperidin-1-yl]methyl}-1H-1,3-benzodiazole-6-carboxylic acid]"
5,0.1 to 1 nM,"C[C@H]1C[C@@H](Oc2ccnc(COc3ccc(F)cc3F)n2)CCN1Cc1nc2ccc(C(=O)NO)cc2n1C[C@@H]1CCO1 [Compound 559, 2-(((2S,4S)-4-((2-((2,4-Difluorophenoxy)methyl)pyrimidin-4-yl)oxy)-2-methylpiperidin-1-yl)methyl)-N-hydroxy-1-(((S)-oxetan-2-yl)methyl)-1H-benzo[d]imidazole-6-carboxamide]"
6,1 to 10 nM,"CC[C@@H]1C[C@H](Oc2ccnc(COc3ccc(C#N)cc3F)n2)CCN1Cc1nc2ccc(C(=O)O)cc2n1C[C@@H]1CCO1 [Compound 586, 2-{[(2R,4R)-4-({2-[(4-Cyano-2-fluorophenoxy)methyl]pyrimidin-4-yl}oxy)-2-ethylpiperidin-1-yl]methyl}-1-{[(2S)-oxetan-2-yl]methyl}-1H-1,3-benzodiazole-6-carboxylic acid]"
7,10 to 100 nM,"C[C@H]1C[C@@H](Oc2ccnc(COc3ccc(F)cc3F)n2)CCN1Cc1nc2ccc(CO)cc2n1C[C@@H]1CCO1 [Compound 639, (2-(((2S,4S)-4-((2-((2,4-difluorophenoxy)methyl)pyrimidin-4-yl)oxy)-2-methylpiperidin-1-yl)methyl)-1-(((S)-oxetan-2-yl)methyl)-1H-benzo[d]imidazol-6-yl)methanol]"
8,0.1 to 1 nM,"C[C@H]1C[C@@H](Oc2ccnc(COc3ccc(F)cc3C#N)n2)CCN1Cc1nc2ccc(C(=O)NO)cc2n1C[C@@H]1CCO1 [Compound 560, 2-{[(2S,4S)-4-({2-[(2-Cyano-4-fluorophenoxy)methyl]pyrimidin-4-yl}oxy)-2-methylpiperidin-1-yl]methyl}-N-hydroxy-1-{[(2S)-oxetan-2-yl]methyl}-1H-1,3-benzodiazole-6-carboxamide]"
9,10 to 100 nM,"CC[C@@H]1C[C@H](Oc2ccnc(COc3ncc(Cl)cc3F)n2)CCN1Cc1nc2ccc(C(=O)O)cc2n1C[C@@H]1CCO1 [Compound 609, 2-{[(2R,4R)-4-[(2-{[(5-Chloro-3-fluoropyridin-2-yl)oxy]methyl}pyrimidin-4-yl)oxy]-2-ethylpiperidin-1-yl]methyl}-1-[(oxetan-2-yl)methyl]-1H-1,3-benzodiazole-6-carboxylic acid]"
10,0.1 to 1 nM,N#Cc1cnc(OCc2nccc(OC3CCN(Cc4nc5c(F)cc(C(=O)O)cc5n4C[C@@H]4CCO4)CC3)n2)c(F)c1 [Compound 634]
11,< 0.1 nM,"C[C@H](Cn1c(CN2CC[C@H](Oc3ccnc(COc4ccc(F)cc4F)n3)C[C@@H]2C)nc2ccc(C(=O)O)cc21)OC(F)F [Compound 592, 1-[(2R)-2-(Difluoromethoxy)propyl]-2-{[(2S,4S)-4-({2-[(2,4-difluorophenoxy)methyl]pyrimidin-4-yl}oxy)-2-methylpiperidin-1-yl]methyl}-1H-1,3-benzodiazole-6-carboxylic acid]"
12,1 to 10 nM,"C[C@H](Cn1c(CN2CC[C@H](Oc3ccnc(COc4ccc(F)cc4F)n3)C[C@@H]2C)nc2ccc(C(=O)O)cc21)OCC(F)(F)F [Compound 594, 2-{[(2S,4S)-4-({2-[(2,4-Difluorophenoxy)methyl]pyrimidin-4-yl}oxy)-2-methylpiperidin-1-yl]methyl}-1-[(2R)-2-(2,2,2-trifluoroethoxy)propyl]-1H-1,3-benzodiazole-6-carboxylic acid]"
13,1 to 10 nM,"CC(c1nc2ccc(C(=O)O)cc2n1C[C@@H]1CCO1)N1CCC(Oc2ccnc(COc3ccc(F)cc3F)n2)CC1 (stereo partly drawn) [Compound 565, 2-(1-(4-((2-((2,4-Difluorophenoxy)methyl)pyrimidin-4-yl)oxy)piperidin-1-yl)ethyl)-1-(((S)-oxetan-2-yl)methyl)-1H-benzo[d]imidazole-6-carboxylic acid]"
14,0.1 to 1 nM,"C[C@H](Cn1c(CN2CC[C@H](Oc3ccnc(COc4ncc(Cl)cc4F)n3)C[C@@H]2C)nc2ccc(C(=O)O)cc21)OC(F)F [Compound 602, 2-{[(2S,4S)-4-[(2-{[(5-Chloro-3-fluoropyridin-2-yl)oxy]methyl}pyrimidin-4-yl)oxy]-2-methylpiperidin-1-yl]methyl}-1-[(2R)-2-(difluoromethoxy)propyl]-1H-1,3-benzodiazole-6-carboxylic acid]"
15,1 to 10 nM,"C[C@H]1C[C@@H](Oc2ccnc(COc3ncc(F)cc3F)c2)CCN1Cc1nc2c(F)cc(C(=O)O)cc2n1C[C@@H]1CCO1 [Compound 619, 2-(((2S,4S)-4-((2-(((3,5-Difluoropyridin-2-yl)oxy)methyl)pyridin-4-yl)oxy)-2-methylpiperidin-1-yl)methyl)-4-fluoro-1-(((S)-oxetan-2-yl)methyl)-1H-benzo[d]imidazole-6-carboxylic acid]"
16,0.1 to 1 nM,"C[C@H]1C[C@@H](Oc2ccnc(COc3ccc(C#N)cc3F)n2)CCN1Cc1nc2ccc(C(=O)O)cc2n1C[C@@H]1CCCO1 [Compound 579, 2-{[(2S,4S)-4-({2-[(4-cyano-2-fluorophenoxy)methyl]pyrimidin-4-yl}oxy)-2-methylpiperidin-1-yl]methyl}-1-{[(2S)-oxolan-2-yl]methyl}-1H-1,3-benzodiazole-6-carboxylic acid]"
17,< 0.1 nM,"CC[C@H]1C[C@@H](Oc2ccnc(COc3ccc(C#N)cc3F)n2)CCN1Cc1nc2ccc(C(=O)O)cc2n1C[C@@H]1CCO1 [Compound 587, 2-{[(2S,4S)-4-({2-[(4-Cyano-2-fluorophenoxy)methyl]pyrimidin-4-yl}oxy)-2-ethylpiperidin-1-yl]methyl}-1-{[(2S)-oxetan-2-yl]methyl}-1H-1,3-benzodiazole-6-carboxylic acid]"
18,0.1 to 1 nM,"C[C@H](Cn1c(CN2CC[C@H](Oc3ccnc(COc4ncc(F)cc4F)n3)C[C@@H]2C)nc2c(F)cc(C(=O)O)cc21)OC(F)F [Compound 620, 1-((R)-2-(difluoromethoxy)propyl)-2-(((2S,4S)-4-((2-(((3,5-difluoropyridin-2-yl)oxy)methyl)pyrimidin-4-yl)oxy)-2-methylpiperidin-1-yl)methyl)-4-fluoro-1H-benzo[d]imidazole-6-carboxylic acid]"
19,0.1 to 1 nM,"C[C@H]1C[C@@H](Oc2ccnc(COc3ccc(F)cc3F)n2)CCN1Cc1nc2ccc(C(=O)NS(=O)(=O)C3CC3)cc2n1C[C@@H]1CCO1 [Compound 564, N-(Cyclopropanesulfonyl)-2-{[(2S,4S)-4-({2-[(2,4-difluorophenoxy)methyl]pyrimidin-4-yl}oxy)-2-methylpiperidin-1-yl]methyl}-1-{[(2S)-oxetan-2-yl]methyl}-1H-1,3-benzodiazole-6-carboxamide]"
20,0.1 to 1 nM,"C[C@H]1C[C@@H](Oc2ccnc(COc3ncc(C#N)cc3F)n2)CCN1Cc1nc2ccc(C(=O)O)cc2n1CCOCC(F)(F)F [Compound 635, 2-(((2S,4S)-4-((2-(((5-Cyano-3-fluoropyridin-2-yl)oxy)methyl)pyrimidin-4-yl)oxy)-2-methylpiperidin-1-yl)methyl)-1-(2-(2,2,2-trifluoroethoxy)ethyl)-1H-benzo[d]imidazole-6-carboxylic acid]"
21,0.1 to 1 nM,"N#Cc1ccc(OCc2nccc(O[C@H]3CCN(Cc4nc5ccc(C(=O)O)cc5n4C[C@@H]4CCO4)C[C@H]3F)n2)c(F)c1 [Compound 552, 2-{[(3R,4S)-4-({2-[(4-cyano-2-fluorophenoxy)methyl]pyrimidin-4-yl}oxy)-3-fluoropiperidin-1-yl]methyl}-1-{[(2S)-oxetan-2-yl]methyl}-1H-1,3-benzodiazole-6-carboxylic acid]"
